A word on the Ki: it is the equilibrium dissociation constant of an inhibitor or competing ligand from its target.

T1 sequence (P20839 whole entry): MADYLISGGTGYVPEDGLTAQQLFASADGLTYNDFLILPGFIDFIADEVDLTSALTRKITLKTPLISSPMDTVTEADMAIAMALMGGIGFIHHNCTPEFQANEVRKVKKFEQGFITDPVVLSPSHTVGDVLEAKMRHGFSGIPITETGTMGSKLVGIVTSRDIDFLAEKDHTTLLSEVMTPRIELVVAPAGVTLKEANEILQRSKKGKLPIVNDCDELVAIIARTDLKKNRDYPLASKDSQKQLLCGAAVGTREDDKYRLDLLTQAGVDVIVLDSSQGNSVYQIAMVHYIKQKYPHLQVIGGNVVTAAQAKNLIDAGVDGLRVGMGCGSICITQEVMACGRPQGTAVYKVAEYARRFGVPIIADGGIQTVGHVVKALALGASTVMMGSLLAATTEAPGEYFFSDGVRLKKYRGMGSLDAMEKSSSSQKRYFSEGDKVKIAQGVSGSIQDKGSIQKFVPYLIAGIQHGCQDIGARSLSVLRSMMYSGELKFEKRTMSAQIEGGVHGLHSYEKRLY

The first assay concerns the target T1, Inosine-5'-monophosphate dehydrogenase 1 (Homo sapiens, UniProt P20839). Kind of assay: The compound was tested for the inhibition towards IMP(Inosine 5'-monophosphate) substrate of Inosine-5'-monophosphate dehydrogenase 1.
Regarding `NC(=O)c1coc([C@@H]2O[C@H](COP(=O)(O)OP(=O)(O)OC[C@H]3O[C@@H](n4cnc5c(N)ncnc54)[C@H](O)[C@@H]3O)[C@@H](O)[C@H]2O)c1`, the Ki was determined as 38000 nM.
With `NC(=O)c1c[se]c([C@@H]2O[C@H](COP(=O)(O)OP(=O)(O)OC[C@H]3O[C@@H](n4cnc5c(N)ncnc54)[C@H](O)[C@@H]3O)[C@@H](O)[C@H]2O)c1`, the Ki was 580 nM.
Same read-out and setting: the result for `NC(=O)c1csc([C@@H]2O[C@H](COP(=O)(O)OP(=O)(O)OC[C@H]3O[C@@H](n4cnc5c(N)ncnc54)[C@H](O)[C@@H]3O)[C@@H](O)[C@H]2O)c1` reads 370 nM.
Same read-out and setting: in the case of `NC(=O)c1c[se]c([C@@H]2O[C@H](COP(=O)(O)OP(=O)(O)OC[C@H]3O[C@@H](n4cnc5c(N)ncnc54)[C@H](O)[C@@H]3O)[C@@H](O)[C@H]2O)n1` it was 33 nM.

Another assay addresses T1, Inosine-5'-monophosphate dehydrogenase 1. Kind of assay: The compound was tested for the inhibition towards […] (Nicotinamide adenine dinucleotide) substrate of Inosine-5'-monophosphate dehydrogenase 1.
For the compound `NC(=O)c1coc([C@@H]2O[C@H](COP(=O)(O)OP(=O)(O)OC[C@H]3O[C@@H](n4cnc5c(N)ncnc54)[C@H](O)[C@@H]3O)[C@@H](O)[C@H]2O)c1`, the Ki amounted to 135000 nM.
Still for that read-out and setting: in the case of `NC(=O)c1c[se]c([C@@H]2O[C@H](COP(=O)(O)OP(=O)(O)OC[C@H]3O[C@@H](n4cnc5c(N)ncnc54)[C@H](O)[C@@H]3O)[C@@H](O)[C@H]2O)c1` it was 260 nM.
Compound `NC(=O)c1csc([C@@H]2O[C@H](COP(=O)(O)OP(=O)(O)OC[C@H]3O[C@@H](n4cnc5c(N)ncnc54)[C@H](O)[C@@H]3O)[C@@H](O)[C@H]2O)c1` registered a Ki of 340 nM.
In turn, `NC(=O)c1c[se]c([C@@H]2O[C@H](COP(=O)(O)OP(=O)(O)OC[C@H]3O[C@@H](n4cnc5c(N)ncnc54)[C@H](O)[C@@H]3O)[C@@H](O)[C@H]2O)n1` yielded an inhibition constant (Ki) of 62 nM.

The target of a further assay is T2, Inosine-5'-monophosphate dehydrogenase 2 (Homo sapiens, UniProt P12268). Description: The compound was tested for the inhibition towards IMP(Inosine 5'-monophosphate) substrate of Inosine-5'-monophosphate dehydrogenase 2.
As for `NC(=O)c1coc([C@@H]2O[C@H](COP(=O)(O)OP(=O)(O)OC[C@H]3O[C@@H](n4cnc5c(N)ncnc54)[C@H](O)[C@@H]3O)[C@@H](O)[C@H]2O)c1`, the Ki was 57900 nM.
Same read-out and setting: the result for `NC(=O)c1c[se]c([C@@H]2O[C@H](COP(=O)(O)OP(=O)(O)OC[C@H]3O[C@@H](n4cnc5c(N)ncnc54)[C@H](O)[C@@H]3O)[C@@H](O)[C@H]2O)c1` reads 1100 nM; that for `NC(=O)c1csc([C@@H]2O[C@H](COP(=O)(O)OP(=O)(O)OC[C@H]3O[C@@H](n4cnc5c(N)ncnc54)[C@H](O)[C@@H]3O)[C@@H](O)[C@H]2O)c1`, 320 nM; that for `NC(=O)c1c[se]c([C@@H]2O[C@H](COP(=O)(O)OP(=O)(O)OC[C@H]3O[C@@H](n4cnc5c(N)ncnc54)[C@H](O)[C@@H]3O)[C@@H](O)[C@H]2O)n1`, 21 nM.

For the next assay, the target named is T2, Inosine-5'-monophosphate dehydrogenase 2. Description: The compound was tested for the inhibition towards […] (Nicotinamide adenine dinucleotide) substrate of Inosine-5'-monophosphate dehydrogenase 2.
`NC(=O)c1coc([C@@H]2O[C@H](COP(=O)(O)OP(=O)(O)OC[C@H]3O[C@@H](n4cnc5c(N)ncnc54)[C@H](O)[C@@H]3O)[C@@H](O)[C@H]2O)c1` displayed a Ki of 99100 nM.
The same measure, in the same setting: in the case of `NC(=O)c1c[se]c([C@@H]2O[C@H](COP(=O)(O)OP(=O)(O)OC[C@H]3O[C@@H](n4cnc5c(N)ncnc54)[C@H](O)[C@@H]3O)[C@@H](O)[C@H]2O)c1` it was 270 nM; in that of `NC(=O)c1csc([C@@H]2O[C@H](COP(=O)(O)OP(=O)(O)OC[C@H]3O[C@@H](n4cnc5c(N)ncnc54)[C@H](O)[C@@H]3O)[C@@H](O)[C@H]2O)c1`, 340 nM.
The same measure, in the same setting: in the case of `NC(=O)c1c[se]c([C@@H]2O[C@H](COP(=O)(O)OP(=O)(O)OC[C@H]3O[C@@H](n4cnc5c(N)ncnc54)[C@H](O)[C@@H]3O)[C@@H](O)[C@H]2O)n1` it was 26 nM.

Source of the values: ChEMBL document CHEMBL1131220, “Isosteric analogues of nicotinamide adenine dinucleotide derived from furanfurin, thiophenfurin, and selenophenfurin as mammalian inosine monophosphate dehydrogenase (type I and II) inhibitors” (J Med Chem, 1998).
